Earlier results, collected in US20050245504A1, “Treatment of diseases with combinations of alpha 7 Nicotinic Acetylcholine Receptor agonists and other compounds” (priority 2002, published 2005).
Like-named read-outs stand apart in the source and are kept apart here.

Key:
5HT3R = target: T1, 5HT3R (Homo sapiens, UniProt P46098)
T1 sequence (P46098 24-478): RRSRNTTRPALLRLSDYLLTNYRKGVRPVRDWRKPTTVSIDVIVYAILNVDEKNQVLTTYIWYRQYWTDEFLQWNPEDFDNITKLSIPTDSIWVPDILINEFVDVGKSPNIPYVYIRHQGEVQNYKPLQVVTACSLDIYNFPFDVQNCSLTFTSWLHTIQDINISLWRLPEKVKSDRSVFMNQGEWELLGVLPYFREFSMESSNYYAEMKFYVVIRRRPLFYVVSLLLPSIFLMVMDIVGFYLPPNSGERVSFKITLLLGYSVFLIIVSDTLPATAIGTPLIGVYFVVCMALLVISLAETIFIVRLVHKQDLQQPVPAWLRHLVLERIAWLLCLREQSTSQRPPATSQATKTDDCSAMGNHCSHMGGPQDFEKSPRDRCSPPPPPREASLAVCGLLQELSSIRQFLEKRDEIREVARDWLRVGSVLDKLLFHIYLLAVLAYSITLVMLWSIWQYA

α7 nAChR = α7 nAChR (Homo sapiens, UniProt P36544)
α7 nAChR, sequence (P36544 23-502): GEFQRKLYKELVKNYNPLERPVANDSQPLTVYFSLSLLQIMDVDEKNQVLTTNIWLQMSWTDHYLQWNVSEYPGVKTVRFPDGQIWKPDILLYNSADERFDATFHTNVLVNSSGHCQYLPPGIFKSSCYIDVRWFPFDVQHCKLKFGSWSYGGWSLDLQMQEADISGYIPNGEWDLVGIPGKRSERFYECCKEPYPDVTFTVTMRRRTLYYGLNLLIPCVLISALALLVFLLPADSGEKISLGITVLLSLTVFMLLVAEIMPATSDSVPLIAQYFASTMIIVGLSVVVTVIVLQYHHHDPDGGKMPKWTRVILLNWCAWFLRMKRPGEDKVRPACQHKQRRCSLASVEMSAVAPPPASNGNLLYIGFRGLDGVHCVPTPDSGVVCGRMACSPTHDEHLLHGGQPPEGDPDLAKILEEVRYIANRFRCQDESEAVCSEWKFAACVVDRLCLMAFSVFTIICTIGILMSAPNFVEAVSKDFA

In the case of CN1CCCC1c1cccnc1 (stereo not shown) [nicotine], the cognition and attention (human, in vivo) is listed as “increases cognition and attention”.
In the case of COc1ccc(/C=C2\CCCN=C2c2cccnc2)c(OC)c1 [GTS-21], the “activity at the 5HT3R” value (5HT3R) is listed as “little activity”.
In the case of Cc1nccn1CC1CCc2c(c3ccccc3n2C)C1=O (stereo not shown) [Ondansetron], the “activity at the α7 nAChR” value (α7 nAChR) is listed as “little activity”.
For Cc1cc([C@@H]2CCCN2C)on1 [ABT-418], the cognition and attention (clinical trials of Alzheimer's disease and attention-deficit disorders) is given as “improves cognition and attention”.
